According to patent publication US9345691B2, “Beta-lactam compounds for enhancing T cell-mediated immune responses” (STEM CELL MEDICINE LTD., priority 2011, dated 2016):

How the values were obtained:
[1] = system: encephalitogenic BP10 T-cell line; test: Adoptive EAE by BP10 line stimulated in vitro with test substance; assay type: in vivo, rat
Excerpt: The ability of a compound to enhance T cell activity may be determined, for example, using an in vivo assay testing the effect of a given compound on the severity of adoptive (passive) EAE, namely, EAE which is induced by the injection of activated encephalitogenic T cell line to the model animal. In order to test a compound, the encephalitogenic T cells are activated in the presence of the compound prior to injection. An exemplary procedure is described in the Examples section hereinbelow.
Antigen-specific T-cell lines were established from lymph node cells that had been stimulated with myelin basic protein (MBP; 10 μg/ml) for 3 days in stimulation medium as described below. Following stimulation, the T-cell blasts were isolated on Lympho-prep (Nycomed Pharma, Oslo, Norway) and seeded in propagation medium. Propagation medium was identical to stimulation medium without autologous serum, but supplemented with fetal calf serum 10% and T-cell growth factors from the supernatant of Con A stimulated spleen cells 10% (Mor et al. (1990) J Clin Invest, 85, 1594-1598). Animals were injected intra-peritoneally with 10^7 MBP-stimulated T cells, following 6-8 cycles of in vitro stimulations. It is known that MBP-reactive lines undergo a reduction in pathogenicity after 6 or more in vitro stimulations. In some experiments the BP10 line was stimulated with phorbol myristate acetate (PMA; 50 ng/ml) and ionomycin (500 ng/ml) for 3 days in stimulation medium, without antigen-presenting cells.
Active EAE was induced by subcutaneous injection of 25 μg guinea-pig MBP (GpMBP) in complete Freund's adjuvant (CFA). CFA was prepared by adding 4 mg/ml Mycobacterium tuberculosis H37Ra (Difco, Mich.) to incomplete Freund's adjuvant (IFA). Adoptive EAE was transferred by intra-peritoneal injection of guinea-pig MBP-activated cells of the BP10 line as described in Mor et al. (1993) J Clin Invest, 92, 2199-2206. […] Clinical scoring was: +1, paralysis of tail; +1.5, paresis of posterior paws and ataxia; +2, paraplegia; +3, paralysis extending to thoracic spine; +4, a moribund state.
Treatment with cefuroxime in vivo could affect many different host agents involved in EAE or AA as well as influencing the rats' bacterial flora. To test whether the antibiotic might directly modify the behavior of effector T cells, an encephalitogenic T-cell line was stimulated in the presence or absence of cefuroxime in vitro. The weakly encephalitogenic BP10 line was used, and was stimulated for 3 days with MBP in the presence or absence of cefuroxime (50 μg/ml). The activated T cells were then washed to remove the antibiotic, the T cells were injected intra-peritoneally into naïve recipient rats (10^7 per rat), and EAE was scored. The BP10 line at later stimulations was used, when its pathogenic potential is reduced, allowing to detect both suppression and enhancement of disease. […] To rule out antigen presenting cells (APC) as the target of the beta-lactam antibiotic, the encephalitogenic BP10 line was stimulated without APC using PMA (50 ng/ml) and Ionomycin (500 ng/ml) in the presence or absence of cefuroxime.

[2] = system: RMA cells (T cell lymphoma of mouse origin); test: RMA mouse tumor model; assay type: in vivo
Description: In the RMA mouse tumor model (T cell lymphoma of mouse origin), T cells are known to participate in tumor rejection, and thus augmenting T cell effects might enhance the animal's ability to reject the tumor implant. RMA cells were injected to C57BL/6J Ola Hsd mice (10^5 cells per mouse) (Chen et al. (1994) J Exp Med, 179:523-532). […] Tumor size was measured and recorded.
An additional experiment was carried out in the same experimental system, comparing 6-APA to clavulanic acid.

[3] = Dissolution in aqueous solution; assay type: physicochemical
NOD mice = test: Autoimmune diabetes in NOD mice; assay type: in vivo, mouse; settings: NOD mice at 5.7 months; SC weekly; ampicillin 1300 μg, ceftriaxone 675 μg per mouse
Description: NOD mice spontaneously develop diabetes mellitus similar to type I diabetes in humans. […] The mice were followed for the development of diabetes, marked by blood sugar above 300 mg/dl on 2 measurements.

[4] = system: experimental autoimmune encephalomyelitis (EAE) in rats; test: Actively induced EAE; assay type: in vivo, rat; settings: oral in drinking water from day 7 postinduction, daily dose 50 mg/kg, versus two control groups
human CD3 T cells = test: Pen 9 western blot of antibiotic-treated human T cells; assay type: cell-based; settings: human T cells activated by mitogen in presence of the antibiotic
albumin [5] = molecular target: T1, albumin (Rattus norvegicus, UniProt P02770); test: Pen 9 detection of penicillin-albumin in vivo; settings: Lewis rats, 50 mg/rat intraperitoneally, 2 hours later
T1 construct: from tissue; host or cells: various tissues and serum of Lewis rats
Description: Rat tissues were ground with a tissue grinder in lysis buffer. The homogenate was centrifuged 14000 g for 15 min in 4° C. and the supernatant was used for western blotting. The protein concentration was determined using the Bio-Rad Dc protein assay (Bio-Rad laboratories, Hercules, Calif.). Following electrophoresis in SDS gel in a mini-gel apparatus (Bio-Rad), the gels were electro-transferred to nitrocellulose membranes (Schleicher and schuell, Dassel, Germany). The nitrocellulose membranes were washed with distilled water for 5 min, and then blocked for 60 min. using a blocking solution composed of 2% bovine serum albumin (Fraction V, Sigma, St. Louis Mo.), 2.5% milk powder (Bio-Rad), Tris (Sigma) pH 7.5 10 mM, NaCl 150 mM and 0.02% thimerosal (Sigma). After 3×10 min. washes in PBS/Tween 20 (PBS/T; 0.02%, Sigma), primary antibodies ( 1/1000) were incubated with the membranes in PBS/Tween for 60 min. Following another series of washes in PBS/T (3×10 min), the membranes were incubated with a secondary antibody (Peroxidase conjugated anti rabbit or anti mouse, IgG Jackson ImmunoResearch, West Grove, Calif.) at a 1/2500 dilution in 2% milk in PBS solution for 60 min. After another 3×10 min washes, the membranes were incubated with the ECL reagent (for 60 seconds) and exposed to X-ray film. […]

albumin [6] = test: Pen 9 western blot of cell lines treated with penicillin; assay type: cell-based; settings: cell lines raised in vitro
[7] = free penicillin; cited from earlier work
[8] = molecular target: T2, 67 kDa band in human T-cell lysates (Homo sapiens, UniProt P02768); test: Radioactive penicillin binding assay; settings: tritium-labeled, 10 and 20 μCi, 3 days with PMA and Ionomycin; CD4 and CD8 T cell lysates
T2 construct: endogenous in cells; host or cells: primary human CD4 or CD8 T cells from peripheral blood of healthy donors
Excerpt: Tritium labeled benzylpenicillin was obtained from Amersham (Buckinghamshire, UK; 250 μCi, 1 mCi/ml). Human CD4 or CD8 T cells were stimulated in 24 well plates, 5×10^6 cells per ml, with PMA and Ionomycin for 72 hr in the presence of 10 or 20 μCi of labeled penicillin. Following stimulation, the cells were collected, lysed and separated by SDS PAGE. The gels were fixed, treated with 1M sodium salicylate, and dried. The dried gels were exposed to x-ray film (BioMax MS film) for 14 days, with intensifying screen (BioMax TranScreen, Eastman Kodak Co., New Haven Conn., USA), and were developed.
To test whether beta-lactam antibiotics might affect T-cell behavior likewise by covalently binding a key T-cell protein, purified CD4 or CD8 human T cells were incubated with 10 and 20 μCi of tritium-labeled lactam benzylpenicillin (Amersham, Buckinghamshire, UK) for 3 days during stimulation with PMA and Ionomycin. The stimulated T cells were collected, washed, lysed and their proteins were subjected to SDS-PAGE separation. Dried gels were exposed in intensifying screens to Xray film for 2 weeks at −80° C. […] The intensity of the band was stronger at the 20 μCi concentration of penicillin.

[9] = BP10 line, same doses as penicillin
[10] = 17 days after tumor injection, versus PBS treated and non-injected mice

T2 sequence (P02768 25-609): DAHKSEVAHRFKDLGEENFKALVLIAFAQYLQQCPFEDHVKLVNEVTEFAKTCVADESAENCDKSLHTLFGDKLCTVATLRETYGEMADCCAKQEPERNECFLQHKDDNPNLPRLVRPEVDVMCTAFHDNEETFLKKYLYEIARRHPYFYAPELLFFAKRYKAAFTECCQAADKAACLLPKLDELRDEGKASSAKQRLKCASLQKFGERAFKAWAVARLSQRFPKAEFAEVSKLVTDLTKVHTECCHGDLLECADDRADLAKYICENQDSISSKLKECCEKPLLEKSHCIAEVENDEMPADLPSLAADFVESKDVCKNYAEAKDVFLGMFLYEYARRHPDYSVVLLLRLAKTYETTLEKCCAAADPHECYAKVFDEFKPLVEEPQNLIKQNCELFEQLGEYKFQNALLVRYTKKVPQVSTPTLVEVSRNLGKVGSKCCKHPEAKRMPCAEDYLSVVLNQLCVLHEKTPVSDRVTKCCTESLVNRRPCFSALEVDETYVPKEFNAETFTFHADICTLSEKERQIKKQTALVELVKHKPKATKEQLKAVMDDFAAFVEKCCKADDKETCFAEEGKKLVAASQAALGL

In the case of `CC1(C)S[C@@H]2[C@H](N)C(=O)N2[C@H]1C(=O)O` [6-APA, 6-aminopenicillanic acid], the “severity of adoptive EAE” value [1, 9] is reported as “EAE enhancing ability, similar to penicillin”, the tumor size [2, 10] is reported as “smaller tumors” and the tumor size ([2]; C57BL/6J mice, SC 2 μg/mouse 3 times per week, last two measurements, versus control mice) is reported as “significantly smaller”. For the same molecule, the “solubility in aqueous solution” value [3] was “difficult to dissolve in aqueous solution”.

With `CO/N=C(\C(=O)N[C@@H]1C(=O)N2C(C(=O)O)=C(CSc3nc(=O)c(=O)[nH]n3C)CS[C@H]12)c1csc(N)n1` [ceftriaxone] the “severity of adoptive EAE” value ([1]; BP10 line stimulated 3 days with MBP in presence of 50 μg/ml, 10^7 cells IP per rat) was “enhanced EAE severity” and the incidence of diabetes (NOD mice) was 60%.

With `CO/N=C(\C(=O)N[C@@H]1C(=O)N2C(C(=O)OC(C)OC(C)=O)=C(COC(N)=O)CS[C@H]12)c1ccco1` (stereo partly shown) [cefuroxime axetil] the “severity of actively induced EAE” value [4] was “significantly more severe EAE”.

In the case of `O=C(O)[C@H]1/C(=C/CO)O[C@@H]2CC(=O)N21` [clavulanic acid], the “severity of adoptive EAE (pathogenicity of BP10 line)” value ([1]; BP10 line stimulated with 25 μg/ml, 5 rats per group) is reported as “enhanced the pathogenicity of BP10 line” and the tumor size [2, 10] is reported as “smaller tumors”.

In the case of `CC1(C)S[C@@H]2[C@H](NC(=O)Cc3ccccc3)C(=O)N2[C@H]1C(=O)O` [penicillin, benzylpenicillin], the “reactivity of Pen 9 antibody with lysates of treated T cells” value (human CD3 T cells) is reported as “reacted specifically to a major protein of the penicillin-treated T cells”, the “67 kD band (penicilloylated albumin) in tissue lysates” value (albumin [5]) is reported as “appears in all tissues examined and is most abundant in serum” and the “penicillin-modified albumin band in cell line lysates” value (albumin [6]) is reported as “could be detected in mesenchymal stem cells, dendritic cells, Jurkat, MOLT4, FAO and CEM lines”. For the same molecule, the half-life [7] was 42 min and the “covalent binding to T-cell protein (radioactive band on SDS-PAGE)” value [8] was “single major penicillin-protein radioactive band was detected at 67 kD”.

In the case of `C[C@]1(Cn2ccnn2)[C@H](C(=O)O)N2C(=O)C[C@H]2S1(=O)=O` [tazobactam], the “severity of adoptive EAE” value [1, 9] is reported as “EAE enhancing ability, similar to penicillin”.

B1: Penicillin-modified rat albumin: rat albumin modified by penicillin (conjugate, UniProt P02770 25-608, looked up)
Albumin: EAHKSEIAHRFKDLGEQHFKGLVLIAFSQYLQKCPYEEHIKLVQEVTDFAKTCVADENAENCDKSIHTLFGDKLCAIPKLRDNYGELADCCAKQEPERNECFLQHKDDNPNLPPFQRPEAEAMCTSFQENPTSFLGHYLHEVARRHPYFYAPELLYYAEKYNEVLTQCCTESDKAACLTPKLDAVKEKALVAAVRQRMKCSSMQRFGERAFKAWAVARMSQRFPNAEFAEITKLATDVTKINKECCHGDLLECADDRAELAKYMCENQATISSKLQACCDKPVLQKSQCLAEIEHDNIPADLPSIAADFVEDKEVCKNYAEAKDVFLGTFLYEYSRRHPDYSVSLLLRLAKKYEATLEKCCAEGDPPACYGTVLAEFQPLVEEPKNLVKTNCELYEKLGEYGFQNAVLVRYTQKAPQVSTPTLVEAARNLGRVGTKCCTLPEAQRLPCVEDYLSAILNRLCVLHEKTPVSEKVTKCCSGSLVERRPCFSALTVDETYVPKEFKAETFTFHSDICTLPDKEKQIKKQTALAELVKHKPKATEDQLKTVMGDFAQFVDKCCKAADKDNCFATEGPNLVARSKEALA
modifications: penicillin-modified
In the case of B1, the “severity of adoptive EAE (pathogenicity of BP10 line)” value ([1]; BP10 line stimulated 3 days with 5 mg/ml in stimulation medium) is reported as “could also enhance the encephalogenicity of the BP10 line”.
